The target of experiment [1] is Nitric oxide synthase (endothelial, human recombinant) eNOS (Homo sapiens, UniProt P29474). As to the kind of experiment: Human eNOS enzyme assay ([3H]L-arginine to [3H]L-citrulline). Type of experiment: biochemical. As to conditions: read-out: heNOS IC50.
The next experiment has as its target nNOS (Rat) (Rattus norvegicus, UniProt P29476). As to the kind of experiment: nNOS (Rat) enzyme assay. Type of experiment: biochemical. As to conditions: for IC50: read-out: nNOS IC50 (rodent data in parentheses); for Selectivity eNOS/nNOS (rodent data in parentheses): rodent enzymes. The procedure: nNOS (Rat), eNOS (Rat) and iNOS (Mouse) Enzyme Assay Recombinant rat or mouse NO synthases (iNOS, eNOS, nNOS) were expressed in Sf9 cells (Sigma), 36 mg prot/ml (Bradford). […] Inhibition of NOS was determined by measuring the formation of L-[3H] citrulline from L-[3H] arginine. […] Stop buffer:100 mM Hepes, pH 5.5, 3 mM EDTA, 3 mM EGTA.

The target of a further experiment is eNOS (Rat) (Rattus norvegicus, UniProt Q62600). As to the kind of experiment: eNOS (Rat) enzyme assay. Type of experiment: biochemical. As to conditions: values in parentheses; for IC50: read-out: eNOS IC50 (rodent data in parentheses).
The target in another experiment is iNOS (Mouse) (Mus musculus, UniProt P29477). As to the kind of experiment: iNOS (Mouse) enzyme assay. Type of experiment: biochemical. As to conditions: values in parentheses, read-out: iNOS IC50 (rodent data in parentheses). The procedure: nNOS (Rat), eNOS (Rat) and iNOS (Mouse) Enzyme Assay Recombinant rat or mouse NO synthases (iNOS, eNOS, nNOS) were expressed in Sf9 cells (Sigma), 36 mg prot/ml (Bradford). […] Inhibition of NOS was determined by measuring the formation of L-[3H] citrulline from L-[3H] arginine. […] Stop buffer:100 mM Hepes, pH 5.5, 3 mM EDTA, 3 mM EGTA. Enzyme and inhibitor were pre-incubated for 35 min in the presence of NADPH before addition of arginine to initiate the reaction.

Experiment [2] addresses Nitric oxide synthase (neuronal, human recombinant) nNOS (Homo sapiens, UniProt P29475). As to the kind of experiment: Human nNOS enzyme assay ([3H]L-arginine to [3H]L-citrulline). As to conditions: for Selectivity eNOS/nNOS: human enzymes, ratio of eNOS IC50 to nNOS IC50; for IC50: read-out: hnNOS IC50. Type of experiment: biochemical.
The target of experiment [3] is Recombinant human inducible NOS (iNOS) (Homo sapiens, UniProt P35228). As to the kind of experiment: Human iNOS enzyme assay, radiometric. Type of experiment: biochemical. As to conditions: read-out: hiNOS IC50.
In experiment [4] the test system is Rats with L5/L6 spinal nerve ligation. The experiment in a line: Chung Spinal Nerve Ligation model, thermal hyperalgesia. Type of experiment: in vivo, rat. As to conditions: standard dosings 3, 10, and 30 mg/kg injected IP.
Experiment [5] has as its system Male, Sprague Dawley rats. The experiment in a line: Porreca model of allodynia (inflammatory soup onto the dura, hindpaw von Frey). Type of experiment: in vivo, rat.
Where [6] appears, read: human recombinant eNOS, values without parentheses.
Where [7] appears, read: rat nNOS, values in parentheses.
Setting [8] is: human recombinant nNOS, values without parentheses.
The mark [9] stands for this setting: human recombinant iNOS, values without parentheses.

The text below walks through data of patent US8173813B2, “Quinolone and tetrahydroquinolone and related compounds having NOS inhibitory activity” (NeurAxon, Inc., priority 2007, dated 2012).

Where “and” joins values, the source holds several entries; their conditions need not be identical. Identical values can stand only once. Counter-ions that a name gives are not always drawn. Like-named read-outs stand apart in the source and are kept apart here.

Chain of Recombinant human inducible NOS (iNOS) (P35228 whole entry): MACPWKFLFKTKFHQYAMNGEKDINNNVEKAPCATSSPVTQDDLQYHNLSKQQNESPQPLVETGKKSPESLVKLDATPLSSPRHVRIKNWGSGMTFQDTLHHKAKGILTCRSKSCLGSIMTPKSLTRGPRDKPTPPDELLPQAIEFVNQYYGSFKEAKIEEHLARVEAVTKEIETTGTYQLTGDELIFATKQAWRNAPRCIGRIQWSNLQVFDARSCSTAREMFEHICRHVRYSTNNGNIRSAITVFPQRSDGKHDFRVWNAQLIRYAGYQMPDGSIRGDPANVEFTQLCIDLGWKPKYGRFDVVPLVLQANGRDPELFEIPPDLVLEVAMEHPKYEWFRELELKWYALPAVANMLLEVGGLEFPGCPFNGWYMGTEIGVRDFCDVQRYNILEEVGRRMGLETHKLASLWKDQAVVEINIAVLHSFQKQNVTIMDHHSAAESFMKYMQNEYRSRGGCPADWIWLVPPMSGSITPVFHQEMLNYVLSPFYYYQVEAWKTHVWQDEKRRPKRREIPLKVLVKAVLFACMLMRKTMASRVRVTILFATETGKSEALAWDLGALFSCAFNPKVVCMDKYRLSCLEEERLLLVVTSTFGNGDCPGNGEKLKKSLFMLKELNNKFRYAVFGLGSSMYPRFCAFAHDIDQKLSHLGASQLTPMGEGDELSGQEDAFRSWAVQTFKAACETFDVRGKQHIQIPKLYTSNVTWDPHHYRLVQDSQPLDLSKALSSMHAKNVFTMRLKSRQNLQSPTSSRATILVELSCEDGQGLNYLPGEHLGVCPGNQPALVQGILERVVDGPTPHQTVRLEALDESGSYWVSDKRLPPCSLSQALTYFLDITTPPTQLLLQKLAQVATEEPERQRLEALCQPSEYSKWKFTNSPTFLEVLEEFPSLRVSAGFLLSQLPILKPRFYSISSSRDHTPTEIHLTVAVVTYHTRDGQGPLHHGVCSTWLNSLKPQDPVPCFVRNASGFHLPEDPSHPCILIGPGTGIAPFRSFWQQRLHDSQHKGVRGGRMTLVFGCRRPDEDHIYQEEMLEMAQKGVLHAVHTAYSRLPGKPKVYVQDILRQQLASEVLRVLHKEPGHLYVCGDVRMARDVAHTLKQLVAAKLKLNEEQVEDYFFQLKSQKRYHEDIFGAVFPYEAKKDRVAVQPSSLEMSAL
Chain of eNOS (Rat) (Q62600 2-1202): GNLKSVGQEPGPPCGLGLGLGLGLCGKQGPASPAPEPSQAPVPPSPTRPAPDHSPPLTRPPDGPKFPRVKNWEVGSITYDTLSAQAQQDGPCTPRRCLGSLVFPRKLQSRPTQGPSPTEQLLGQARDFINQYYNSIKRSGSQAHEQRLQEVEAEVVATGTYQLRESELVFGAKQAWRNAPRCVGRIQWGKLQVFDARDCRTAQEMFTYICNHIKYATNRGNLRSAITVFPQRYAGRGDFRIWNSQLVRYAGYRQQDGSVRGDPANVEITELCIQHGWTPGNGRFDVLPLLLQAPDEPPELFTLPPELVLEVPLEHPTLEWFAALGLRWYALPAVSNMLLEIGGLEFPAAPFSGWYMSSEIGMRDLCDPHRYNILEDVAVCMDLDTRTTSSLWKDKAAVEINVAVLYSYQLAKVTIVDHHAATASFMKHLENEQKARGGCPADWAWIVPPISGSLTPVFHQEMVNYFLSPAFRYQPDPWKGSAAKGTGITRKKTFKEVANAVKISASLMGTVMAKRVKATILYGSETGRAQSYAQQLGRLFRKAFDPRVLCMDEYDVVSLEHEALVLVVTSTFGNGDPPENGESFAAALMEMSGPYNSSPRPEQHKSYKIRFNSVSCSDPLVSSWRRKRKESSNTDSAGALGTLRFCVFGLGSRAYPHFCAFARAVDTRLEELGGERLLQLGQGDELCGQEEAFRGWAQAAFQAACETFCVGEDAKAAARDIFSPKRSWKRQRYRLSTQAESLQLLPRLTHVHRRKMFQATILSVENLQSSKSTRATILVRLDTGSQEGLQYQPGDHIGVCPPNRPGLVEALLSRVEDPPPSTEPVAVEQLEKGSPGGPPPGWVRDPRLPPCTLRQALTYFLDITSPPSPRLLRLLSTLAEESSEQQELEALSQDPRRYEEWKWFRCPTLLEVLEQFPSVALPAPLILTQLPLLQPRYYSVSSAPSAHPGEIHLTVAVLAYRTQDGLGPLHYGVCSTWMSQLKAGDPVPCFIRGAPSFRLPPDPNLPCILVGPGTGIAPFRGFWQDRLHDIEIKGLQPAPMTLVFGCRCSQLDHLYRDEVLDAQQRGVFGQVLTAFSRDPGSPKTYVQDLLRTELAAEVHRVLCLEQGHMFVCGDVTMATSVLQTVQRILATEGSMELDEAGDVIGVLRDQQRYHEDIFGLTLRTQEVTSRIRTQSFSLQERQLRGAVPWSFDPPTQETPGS
Chain of Nitric oxide synthase (endothelial, human recombinant) eNOS (P29474 2-1203): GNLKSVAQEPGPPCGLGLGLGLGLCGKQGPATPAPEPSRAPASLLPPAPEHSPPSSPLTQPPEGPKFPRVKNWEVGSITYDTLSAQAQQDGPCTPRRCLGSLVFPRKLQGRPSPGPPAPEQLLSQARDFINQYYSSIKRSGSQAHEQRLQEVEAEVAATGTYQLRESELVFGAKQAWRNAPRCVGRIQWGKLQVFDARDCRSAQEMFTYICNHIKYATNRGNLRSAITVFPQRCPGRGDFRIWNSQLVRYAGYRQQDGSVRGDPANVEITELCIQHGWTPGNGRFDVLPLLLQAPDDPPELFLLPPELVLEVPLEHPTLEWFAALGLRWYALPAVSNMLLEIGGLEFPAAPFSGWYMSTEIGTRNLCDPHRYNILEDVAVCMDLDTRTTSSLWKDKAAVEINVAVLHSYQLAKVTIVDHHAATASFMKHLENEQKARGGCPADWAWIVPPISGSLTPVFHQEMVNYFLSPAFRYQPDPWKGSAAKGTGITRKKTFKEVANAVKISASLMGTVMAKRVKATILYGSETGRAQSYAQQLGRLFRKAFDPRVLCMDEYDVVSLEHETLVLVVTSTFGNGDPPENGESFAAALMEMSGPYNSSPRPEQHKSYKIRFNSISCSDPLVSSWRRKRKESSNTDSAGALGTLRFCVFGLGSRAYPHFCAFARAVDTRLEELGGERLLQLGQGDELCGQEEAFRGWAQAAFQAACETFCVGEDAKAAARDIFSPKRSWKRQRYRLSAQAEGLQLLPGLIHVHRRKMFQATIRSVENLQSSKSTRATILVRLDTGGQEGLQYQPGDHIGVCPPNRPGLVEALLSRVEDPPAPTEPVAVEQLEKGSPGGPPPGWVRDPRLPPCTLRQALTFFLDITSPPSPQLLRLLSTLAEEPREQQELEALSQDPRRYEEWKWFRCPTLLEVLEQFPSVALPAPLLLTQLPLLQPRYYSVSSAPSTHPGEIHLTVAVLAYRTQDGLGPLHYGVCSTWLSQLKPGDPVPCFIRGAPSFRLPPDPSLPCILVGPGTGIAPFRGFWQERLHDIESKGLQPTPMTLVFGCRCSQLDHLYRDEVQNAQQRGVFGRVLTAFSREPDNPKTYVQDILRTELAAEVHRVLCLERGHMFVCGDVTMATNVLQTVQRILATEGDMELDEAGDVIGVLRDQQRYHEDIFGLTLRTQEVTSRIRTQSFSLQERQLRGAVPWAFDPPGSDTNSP
Chain of Nitric oxide synthase (neuronal, human recombinant) nNOS (P29475 whole entry): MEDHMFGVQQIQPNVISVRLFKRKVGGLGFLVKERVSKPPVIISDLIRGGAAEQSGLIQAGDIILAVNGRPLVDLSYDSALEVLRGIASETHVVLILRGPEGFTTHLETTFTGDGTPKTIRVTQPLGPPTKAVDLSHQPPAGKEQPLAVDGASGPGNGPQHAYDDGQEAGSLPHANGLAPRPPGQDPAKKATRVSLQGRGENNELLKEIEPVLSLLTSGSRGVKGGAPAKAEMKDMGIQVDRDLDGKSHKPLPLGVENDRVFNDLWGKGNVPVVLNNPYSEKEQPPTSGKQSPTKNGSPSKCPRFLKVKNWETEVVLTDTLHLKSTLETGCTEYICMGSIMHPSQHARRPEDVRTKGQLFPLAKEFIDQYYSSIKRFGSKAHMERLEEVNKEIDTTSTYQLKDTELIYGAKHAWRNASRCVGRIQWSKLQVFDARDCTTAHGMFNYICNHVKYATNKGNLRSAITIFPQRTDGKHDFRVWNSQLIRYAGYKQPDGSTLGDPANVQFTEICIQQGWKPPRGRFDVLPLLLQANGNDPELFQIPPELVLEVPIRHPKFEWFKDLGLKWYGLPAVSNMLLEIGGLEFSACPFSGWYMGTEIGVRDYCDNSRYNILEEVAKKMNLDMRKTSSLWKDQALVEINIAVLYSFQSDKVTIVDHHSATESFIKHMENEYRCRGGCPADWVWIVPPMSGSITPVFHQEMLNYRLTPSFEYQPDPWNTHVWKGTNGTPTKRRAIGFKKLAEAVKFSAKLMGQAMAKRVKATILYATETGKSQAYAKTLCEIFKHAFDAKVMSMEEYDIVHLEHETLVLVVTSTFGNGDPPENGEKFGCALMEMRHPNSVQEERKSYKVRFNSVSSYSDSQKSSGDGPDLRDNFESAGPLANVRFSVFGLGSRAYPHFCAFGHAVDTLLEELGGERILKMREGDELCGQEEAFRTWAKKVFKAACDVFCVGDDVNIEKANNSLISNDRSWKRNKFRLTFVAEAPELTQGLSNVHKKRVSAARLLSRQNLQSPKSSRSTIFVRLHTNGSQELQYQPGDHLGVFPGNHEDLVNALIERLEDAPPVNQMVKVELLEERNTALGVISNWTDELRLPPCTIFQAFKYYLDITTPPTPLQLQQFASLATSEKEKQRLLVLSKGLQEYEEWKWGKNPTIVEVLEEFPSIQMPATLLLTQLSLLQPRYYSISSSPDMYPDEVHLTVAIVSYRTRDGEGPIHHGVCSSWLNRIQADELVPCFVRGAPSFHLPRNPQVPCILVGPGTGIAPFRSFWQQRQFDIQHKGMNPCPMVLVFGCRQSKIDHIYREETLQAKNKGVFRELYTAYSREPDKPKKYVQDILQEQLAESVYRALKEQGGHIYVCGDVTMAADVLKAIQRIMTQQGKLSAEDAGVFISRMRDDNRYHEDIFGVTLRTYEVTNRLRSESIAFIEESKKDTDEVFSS

In general, IC50 refers to the concentration at which inhibition is half-maximal. Turning to `CC(C)NCCN1CCCc2cc(NC(=N)c3cccs3)ccc21` [Example 61, N-(1-(2-(Isopropylamino)ethyl)-1,2,3,4-tetrahydroquinolin-6-yl)thiophene-2-carboximidamide], the IC50 was 30.2 µM in experiment [1] (setting [6]); 1100 nM at nNOS (Rat) (setting [7]); 6.2 µM at eNOS (Rat); 8 µM at iNOS (Mouse); 260 nM in experiment [2] (setting [8]); 2.9 µM in experiment [3]. In addition, the “Selectivity eNOS/nNOS (rodent data in parentheses)” value on nNOS (Rat) (values in parentheses) was “(5.6)”. For the same compound, in experiment [2], the “Selectivity eNOS/nNOS” value worked out at 116.

With `CN1CCCC1CCN1CCCc2cc(NC(=N)c3cccs3)ccc21` (centres unmarked) [Example 14, N-(1-(2-(1-methylpyrrolidin-2-yl)ethyl)-1,2,3,4-tetrahydroquinolin-6-yl)thiophene-2-carboximidamide], the IC50 in experiment [1] (setting [6]) is 17.4 µM; on nNOS (Rat), 170 nM; on eNOS (Rat), 35 µM; on iNOS (Mouse) it was above 100 µM; in experiment [3] it was above 100 µM. Besides, the “Selectivity eNOS/nNOS (rodent data in parentheses)” value on nNOS (Rat) (values in parentheses) is “(206)”. The “Selectivity eNOS/nNOS” value in experiment [2] amounted to 137.

For `Cl.Cl.N=C(Nc1ccc2c(c1)CCN2C1CCNCC1)c1cccs1` [Example 54, N-(1-(Piperidin-4-yl)indolin-5-yl)thiophene-2-carboximidamide dihydrochloride], the concentration for half-maximal inhibition (IC50) in experiment [1] (setting [6]) is 46 µM; at nNOS (Rat) (setting [7]), 2600 nM; on eNOS (Rat), 12 µM; on iNOS (Mouse) it was 7.53 µM; in experiment [2] (setting [8]), 270 nM; in experiment [3], above 100 µM. Further, in experiment [4], the “antihyperalgesic effect in the Chung model” value (shortened to “antihyperalgesic effect”) was “clear antihyperalgesic effect”. The “Selectivity eNOS/nNOS” value in experiment [2] worked out at 170.

As to `CNCCN1CCCc2cc(NC(=N)c3cccs3)ccc21.Cl.Cl` [Example 30, N-(1-(2-(Methylamino)ethyl)-1,2,3,4-tetrahydroquinolin-6-yl)thiophene-2-carboximidamide dihydrochloride], the 50% inhibitory concentration (IC50) was 24.7 µM and 29 µM in experiment [1] (setting [6]); 40.7 µM in experiment [1]; 192 nM at nNOS (Rat) (setting [7]); above 100 µM on iNOS (Mouse); 570 nM and 380 nM and 180 nM in experiment [2] (setting [8]); above 100 µM in experiment [3] (setting [9]). For the same compound, at eNOS (Rat), the “eNOS IC50 (rodent data in parentheses)” value is “(inactive)”.

For `N=C(Nc1ccc2c(c1)CCCCN2CCN1CCCC1)c1cccs1` [Example 27, N-(1-(2-(Pyrrolidin-1-yl)ethyl)-2,3,4,5-tetrahydro-1H-benzo[b]azepin-7-yl)thiophene-2-carboximidamide], the IC50 in experiment [1] (setting [6]) is 48.7 µM; on nNOS (Rat) (setting [7]) it was 92 nM; on eNOS (Rat), 42.1 µM; at iNOS (Mouse) it was above 100 µM; in experiment [2] (setting [8]), 350 nM; in experiment [3] it was 54.4 µM. Also, the “Selectivity eNOS/nNOS (rodent data in parentheses)” value on nNOS (Rat) (values in parentheses) is reported as “(523)”. Also, the “Selectivity eNOS/nNOS” value in experiment [2] was 138.

As for `CN(C)CCN1CCCCc2cc(NC(=N)c3cccs3)ccc21.Cl.Cl` [Example 28, N-(1-(2-(Dimethylamino)ethyl)-2,3,4,5-tetrahydro-1H-benzo[b]azepin-7-yl)thiophene-2-carboximidamide dihydrochloride], the IC50 in experiment [1] is 99.1 µM; on nNOS (Rat) (setting [7]), 120 nM; on eNOS (Rat), 62.7 µM; on iNOS (Mouse) it was above 100 µM; in experiment [2] (setting [8]), 440 nM; in experiment [3] (setting [9]) it was 35.7 µM. Moreover, the “antihyperalgesic effect” value in experiment [4] is given as “clear antihyperalgesic effect”. In addition, the “hindpaw allodynia after inflammatory soup (IS)” value in experiment [5] (30 mg/kg p.o. 15 minutes prior to IS) is “reverses the development of hindpaw allodynia”.

Consider `CN1CCC(N2CCc3cc(NC(=N)c4cccs4)ccc32)CC1` [Example 37, N-(1-(1-Methylpiperidin-4-yl)indolin-5-yl)thiophene-2-carboximidamide], for which the IC50 in experiment [1] (setting [6]) was found to be 50.3 µM; in experiment [2] (setting [8]), 1220 nM; in experiment [3] (setting [9]), 4.35 µM. Also, the “antihyperalgesic effect” value in experiment [4] is “clear antihyperalgesic effect”. The “Selectivity eNOS/nNOS” value in experiment [2] is recorded as 41.2.

Regarding `CN(C)CCN1C(=O)CCc2cc(NC(=N)c3cccs3)ccc21` [Example 3, N-(1-(2-(dimethylamino)ethyl)-2-oxo-1,2,3,4-tetrahydroquinolin-6-yl)thiophene-2-carboximidamide], the half-maximal inhibitory concentration (IC50) at nNOS (Rat) was 210 nM; at eNOS (Rat), 65 µM; on iNOS (Mouse) it was above 100 µM; in experiment [2], 580 nM; in experiment [3], 32 µM. For the same compound, the “antihyperalgesic effect” value in experiment [4] is “no antihyperalgesic effect”.

In the case of `N=C(Nc1ccc2c(c1)CCCN2C1CCNC1)c1cccs1` (centres unmarked) [Example 29, N-(1-(Pyrrolidin-3-yl)-1,2,3,4-tetrahydroquinolin-6-yl)thiophene-2-carboximidamide dihydrochloride], the IC50 is 23.5 µM in experiment [1]; 150 nM on nNOS (Rat) (setting [7]); above 100 µM at eNOS (Rat); above 100 µM on iNOS (Mouse); 250 nM in experiment [2]; 15.6 µM and 6.94 µM in experiment [3] (setting [9]).

Consider `N=C(Nc1ccc2c(c1)CCCN2C1CCNCC1)c1cccs1` [Example 47], for which the IC50 in experiment [1] (setting [6]) is 156 µM; at nNOS (Rat) (setting [7]), 3800 nM; at eNOS (Rat) it was above 100 µM; at iNOS (Mouse), 0.34 µM; in experiment [2] (setting [8]), 600 nM; in experiment [3] (setting [9]), 6.57 µM. Further, the “antihyperalgesic effect” value in experiment [4] is recorded as “clear antihyperalgesic effect”. In addition, the “Selectivity eNOS/nNOS” value in experiment [2] is 260.

Consider `CNS(=O)(=O)Cc1ccc2[nH]cc(CCN(C)C)c2c1` [Sumatriptan succinate, reference compound], for which the “hindpaw allodynia after inflammatory soup (IS)” value in experiment [5] (1 mg/kg s.c. 5 minutes prior to the soup, measured two hours after IS) is “prevention of the development of hindpaw allodynia”.

As for `CN1CCCC1CCN1CCCc2cc(NC(=N)c3cccs3)ccc21` (single isomer, unassigned) [Example 24, N-(1-(2-(1-Methylpyrrolidin-2-yl)ethyl)-1,2,3,4-tetrahydroquinolin-6-yl)thiophene-2-carboximidamide], the IC50 in experiment [1] (setting [6]) is 15.4 µM; at nNOS (Rat) it was 120 nM; at eNOS (Rat), 22 µM; on iNOS (Mouse), above 100 µM; in experiment [2] (setting [8]), 170 nM; in experiment [3], 33.2 µM. On nNOS (Rat) (values in parentheses), the “Selectivity eNOS/nNOS (rodent data in parentheses)” value is on record as “(183)”. The “Selectivity eNOS/nNOS” value in experiment [2] is 91.7.

For `CN(C)CCN1CCCc2ccc(NC(=N)c3cccs3)cc21` [Example 32, N-(1-(2-(Dimethylamino)ethyl)-1,2,3,4-tetrahydroquinolin-7-yl)thiophene-2-carboximidamide], the concentration for half-maximal inhibition (IC50) in experiment [1] (setting [6]) was 37.7 µM; on nNOS (Rat) (setting [7]), 940 nM; on eNOS (Rat), above 100 µM; on iNOS (Mouse), above 100 µM; in experiment [2] (setting [8]), 450 nM; in experiment [3] (setting [9]) it was 0.26 µM. The “Selectivity eNOS/nNOS” value in experiment [2] was 83.2.

With `CN1CCC(C2C(=O)Nc3ccc(NC(=N)c4cccs4)cc32)CC1` (centres unmarked) [Example 31, N-(3-(1-Methylpiperidin-4-yl)-2-oxoindolin-5-yl)thiophene-2-carboximidamide], the IC50 in experiment [1] (setting [6]) was 22.9 µM; on nNOS (Rat) (setting [7]), 990 nM; at eNOS (Rat), above 100 µM; on iNOS (Mouse), above 100 µM; in experiment [2] (setting [8]) it was 600 nM; in experiment [3] (setting [9]) it was 5.52 µM. Also, the “Selectivity eNOS/nNOS” value in experiment [2] is 38.3.

Regarding `CNCCN1CCCc2ccc(NC(=N)c3cccs3)cc21` [Example 44, N-(1-(2-(Methylamino)ethyl)-1,2,3,4-tetrahydroquinolin-7-yl)thiophene-2-carboximidamide], the IC50 in experiment [1] (setting [6]) is 22.4 µM; on nNOS (Rat) (setting [7]), 480 nM; on eNOS (Rat), 0.63 µM; at iNOS (Mouse), 4.3 µM; in experiment [2] (setting [8]), 120 nM; in experiment [3] (setting [9]), above 100 µM. For the same compound, in experiment [2], the “Selectivity eNOS/nNOS” value amounted to 187.

`N=C(Nc1ccc2c(c1)CCC(=O)N2CCN1CCCCC1)c1cccs1` [Example 1, N-(2-oxo-1-(2-(piperidin-1-yl)ethyl)-1,2,3,4-tetrahydroquinolin-6-yl)thiophene-2-carboximidamide]: the IC50 in experiment [1] came out at 25.2 µM; at nNOS (Rat) (setting [7]) it was 22 nM; at eNOS (Rat), 52 µM; at iNOS (Mouse), 8.5 µM; in experiment [2] it was 780 nM; in experiment [3] (setting [9]) it was 39 µM.
